# Reference: patent publication US8883130B2, “Transparent antiperspirant gels” (Henkel AG & Co. KGaA, priority 2008, dated 2014)
# Assay: Emulsion stability with silicone-free water-in-oil emulsifiers
# Type: physicochemical
substance,measurement,value
Laureth-2,stability of the emulsion,did not yield stable emulsions
